According to US20240190851A1, “FURAN FUSED RING-SUBSTITUTED GLUTARIMIDE COMPOUND” (MEDSHINE DISCOVERY INC., priority 2021, published 2024):
Counter-ions that a name gives are not always drawn.

Target: T1, AR F876L (Homo sapiens, UniProt P10275, F877L)
T1 construct: expressed in transfected cells; host or cells: 293T AR F876L
T1 sequence (P10275 1-920 F877L): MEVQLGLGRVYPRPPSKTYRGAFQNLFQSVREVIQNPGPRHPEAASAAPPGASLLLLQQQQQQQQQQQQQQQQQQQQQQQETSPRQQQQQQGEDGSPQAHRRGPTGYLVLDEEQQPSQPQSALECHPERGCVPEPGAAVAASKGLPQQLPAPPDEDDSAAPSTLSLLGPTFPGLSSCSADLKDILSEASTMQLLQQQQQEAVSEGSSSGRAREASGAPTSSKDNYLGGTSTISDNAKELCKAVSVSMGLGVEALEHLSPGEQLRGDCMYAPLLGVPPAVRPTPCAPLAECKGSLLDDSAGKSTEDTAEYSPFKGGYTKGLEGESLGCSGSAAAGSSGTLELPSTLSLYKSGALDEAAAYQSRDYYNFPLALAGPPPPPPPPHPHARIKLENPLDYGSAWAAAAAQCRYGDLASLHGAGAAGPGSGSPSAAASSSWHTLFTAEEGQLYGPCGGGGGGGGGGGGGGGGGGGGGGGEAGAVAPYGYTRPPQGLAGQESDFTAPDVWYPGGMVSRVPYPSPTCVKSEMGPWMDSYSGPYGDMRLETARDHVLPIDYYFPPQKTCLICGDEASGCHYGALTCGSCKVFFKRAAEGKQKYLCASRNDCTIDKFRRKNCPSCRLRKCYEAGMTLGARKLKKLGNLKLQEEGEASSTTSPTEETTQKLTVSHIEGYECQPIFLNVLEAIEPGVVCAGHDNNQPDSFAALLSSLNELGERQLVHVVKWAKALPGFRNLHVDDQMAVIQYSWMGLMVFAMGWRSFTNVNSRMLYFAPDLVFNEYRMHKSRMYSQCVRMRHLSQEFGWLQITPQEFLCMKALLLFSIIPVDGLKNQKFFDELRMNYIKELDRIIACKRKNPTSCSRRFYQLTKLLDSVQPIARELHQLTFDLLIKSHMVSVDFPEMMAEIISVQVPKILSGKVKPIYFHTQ
Test: In cell western of AR protein in 293T AR F876L cells
Type: cell-based
Conditions: AR degradation, 48 hours
Description: Experimental purpose: In this experiment, the effects of compounds WX015, WX016, and WX017 on the expression level of AR protein with point mutation in cell line 293T AR F876L were detected by in cell western assay to evaluate the degradation effect of compounds on proteins with AR F876L point mutation.
The cell line was cultured in a 37° C., 5% CO2 incubator. Regular passage, and cells in logarithmic growth phase were taken for plating.
2. Cell Plating: • 1) Cells were stained with trypan blue and viable cells were counted. • 2) The cell concentration was adjusted to an appropriate concentration with a density of 20000/well. • 3) 90 μL of cell suspension per well was added to a 96-well culture plate, and cell-free culture medium was added to the blank control well. • 4) The culture plate was cultured overnight in a 37° C., 5% CO2 incubator with 100% relative humidity.
3. […]
Relative quantification of the density intensity of immunoblot chemiluminescence bands was performed using Image Studio Ver 5.2 software.

DC50: 43 nM | Dmax (HEK-293T): 85%
Compound: N#Cc1ccc(O[C@H]2CC[C@H](NC(=O)c3ccc(N4CCC(CN5CCN(c6cccc7c6ccc6occ(C8CCC(=O)NC8=O)c67)CC5)CC4)nn3)CC2)cc1Cl (some centres unmarked) [Hydrochloride of WX015]
